The series is described as follows: pKa of oil formers by titration with tetrabutylammonium hydroxide. It counts as physicochemical. The following applies: titration with TBAH in dimethyl sulfoxide/water (100:0.25).

Take tricresyl phosphate [TCP]: the “pKa of oil former” value is given as greater than 20.

Source of the values: patent US6379879B2, “Color photographic silver halide material” (Agfa-Gevaert, priority 2000, dated 2002).
